Assay [1] deals with walnut twig beetle (WTB), Pityophthorus juglandis. The experiment in a line: Example 1 Field Test 1: flight response to X and related isomers, yellow sticky card traps. It counts as in vivo. On the procedure:
Field Bioassays of Semiochemicals. […] Contech Enterprises Inc., Delta, British Columbia, Canada) and attached to yellow sticky card traps ([…], OK). In addition, synthesized (+) and (-) enantiomers of trans-conophthorin were tested in 400 μl polyethylene Eppendorf microcentrifuge tubes. Four field studies were conducted (Table 2) that tested the flight responses to: 3-methyl-2-buten-l-ol and related isomers (Field Test 1); 3-methyl-2-buten-l-ol with and without racemic trans-conophthorin (Field Test 2); 3-methyl-2-buten-l-ol with and without the purified enantiomers of trans-conophthorin (Field Test 3); and 3-methyl-2-buten-l-ol with and without racemic chalcogran (Field Test 4). [table] Statistical Analysis. Field Tests 1-4 were each analyzed for treatment effect by using Friedman's non-parametric analysis of variance. (See Zar, J. H. 2010. Biostatistical Analysis, 5th Ed. Pearson Prentice Hall, New Jersey). Males and females were subjected to separate analyses. All treatments within experiments yielding a significant treatment effect were compared by using an a posteriori Nemenyi test (Zar 2010) with experimentwise α=0.05. Sex ratios of responding WTB were determined using Cochran's method for unbiased sampling (See Cochran, W. G. 1977. Sampling Techniques, 3rd ed. John Wiley, New York), with 95% confidence intervals calculated by using the Clopper-Pearson method. (See Zar, J. H. 2010. Biostatistical Analysis, 5th Ed. Pearson Prentice Hall, New Jersey).

The test system of assay [2] is WTB. As to the kind of experiment: Trap type: clear sticky panel vs 4-unit Lindgren funnel traps baited with X. The class given is in vivo, Pityophthorus juglandis. The settings on record: for trap catches, female WTB / trap catches, male WTB: 5 mg/d, 15 ml load. On the procedure: In another set of experiments, the response of WTB to clear sticky panel traps and 4-unit Lindgren funnel traps was tested. Both were baited with 3-methyl-2-buten-1-ol (5 mg/d, 15 ml load). The clear plexiglass panel traps were coated with Stikem Special (Seabright Labs, Emeryville, Calif.). The experiment was conducted in late spring in a native riparian stand of J. hindsii at Shadow Cliffs Regional Park, Alameda Co., Calif. The pairs of traps were hung at a height of 3 m in the crowns of J. hindsii and arranged in six spatial blocks. Treatments were re-randomized among the trap stations each time that the traps were emptied (approx. weekly, after periodic WTB flights). Trap catches of males and females were normalized by the available trapping surface area for each trap type.
Statistical Analyses. Analyses of treatment effects for the tests of trap type were performed by using Friedman's non-parametric analysis of variance or a sign test, depending on the number of treatments. (See Zar, J. H. 2010. Biostatistical Analysis. 5th ed. Pearson Prentice Hall, Englewood Cliffs, N.J.) Analysis of treatment effects for the Rain•X experiment was performed by using a Wilcoxon paired sample test. Id. Multiple comparisons for experiments with more than two treatments were performed with an a posteriori Nemenyi test with experimentwise α=0.05. Id. In all cases, male and female WTB were analyzed separately. Proportions of female WTB responding to treatments were calculated and 95% confidence intervals determined by using the Clopper-Pearson method. Id.

For assay [3], the system named is WTB. The experiment in a line: Two release rate (pouch vs. bottle) experiment, 4-unit Lindgren funnel traps. The class given is in vivo, Pityophthorus juglandis. The following applies: for trap catches, female WTB / trap catches, male WTB: N=40. As to the method:
Field Testing of Various Release Rates of 3-methyl-2-buten-1-ol. The flight response of WTB to two release rates of 3-methyl-2-buten-1-ol was tested at the Wolfskill Experimental Orchards (the Juglans collection of the USDA ARS National Clonal Germplasm Repository in Winters, Solano Co., Calif.) in late spring. The two release rates were: 1) 15-80 mg/d (depending on temperature, as per manufacturer's data), delivered from a commercially available LDPE plastic pouch (Product #300000736, RD-1039, Contech Enterprises Inc., Delta, BC, Canada); and 2) 5 mg/d (based on laboratory assessments at 25° C. and 30° C.), delivered from a 15 ml polyethylene bottle charged with 15 ml of 3-methyl-2-buten-1-ol [≧98% chemical purity, product #W364703, SAFC (=Sigma-Aldrich), St. Louis Mo.]. The pouch or bottle was suspended in the middle of a 4-unit Lindgren funnel trap (Contech), attached to the funnel strut so it rested on the inside surface of the third funnel (counted from the trap top), without blocking the central axis/interior hole of the trap. The trap cup was filled with propylene glycol-based recreational vehicle/marine antifreeze to a depth of about 2.5 to 5 cm, and the traps were hung from poles at a height of approximately 3 m. (See Seybold, S. J., Dallara, P. L., Hishinuma, S. M., and Flint, M. L. Detecting and Identifying the Walnut Twig Beetle: Monitoring Guidelines for the Invasive Vector of Thousand Cankers Disease of Walnut, University of California Agriculture and Natural Resources, Statewide Integrated Pest Management Program, 11 pp., Apr. 30, 2012). The two treatments were replicated in four spatial blocks and the treatments were re-randomized between the two trap stations in a block each time the traps were emptied (nearly every day).
Statistical Analyses. Analysis of treatment effects for the pouch vs. bottle experiment was done by using a sign test. (See Zar, J. H. 2010. Biostatistical Analysis. 5th ed. Pearson Prentice Hall, Englewood Cliffs, N.J.) The other four experiments were analyzed for treatment effect by using Friedman's non-parametric analysis of variance. Id. In all experiments, males and females were analyzed separately. All treatments within experiments yielding a significant treatment effect were compared by using an a posteriori Nemenyi test with experimentwise α=0.05. Id. For all experiments, differences among proportions of female WTB responding to treatments were analyzed by comparing 95% confidence intervals determined with the Clopper-Pearson method. Id.

The mark [4] stands for this setting: about three months in summer, Davis CA, N=21.
The mark [5] stands for this setting: release rate 5 mg/d (bottle with 15 ml load).
Where [6] appears, read: release rate 15-80 mg/d (pouch).

Take `CC(C)=CCO` [X, 3-methyl-2-buten-1-ol]: the “flight attraction” value in assay [1] was “attractive to males and females”. Also, the “proportion of females responding” value is 0.65 in assay [1] (Davis CA); 0.59 in the assay on WTB [2] (funnel traps); 0.67 in the assay on WTB [2] (sticky traps); 0.71 in the assay with WTB [3] (higher release rate (15-80 mg/d)); 0.63 in the assay with WTB [3] (lower release rate (5 mg/d)). The “trap catches, female WTB” value was determined as 438 in assay [1] (setting [4]); 160 with WTB [2] (4-unit Lindgren funnel traps); 449 in the assay on WTB [2] (clear sticky panel traps); 3072 in the assay on WTB [3] (setting [5]); 3085 in the assay on WTB [3] (setting [6]). Moreover, the “trap catches, male WTB” value is on record as 233 in assay [1] (setting [4]); 110 in the assay with WTB [2] (4-unit Lindgren funnel traps); 216 in the assay on WTB [2] (clear sticky panel traps); 1828 in the assay on WTB [3] (setting [5]); 1284 in the assay with WTB [3] (setting [6]). Moreover, in the assay with WTB [3] (two-sided sign test, pouch vs bottle), the “difference between release rate treatments” value is given as “male response was greater for the lower release rate plastic bottle treatment”.

The values are drawn from patent publication US20130014428A1, “METHODS OF MONITORING AND CONTROLLING THE WALNUT TWIG BEETLE, PITYOPHTHORUS JUGLANDIS” (The United States of America as Represented by the …, priority 2011, published 2013).
